Assays:
[1] = system: PRV gE protein (PRV-HeNLH/2017 strain); type: cell-based, Pseudorabies virus
PRV-HeNLH/2017 strain = type: cell-based, Pseudorabies virus
PRV-GFP strain = type: cell-based, Pseudorabies virus

SMILES: O=C(O)[C@H]1O[C@@H](Oc2cc3oc(-c4ccccc4)cc(=O)c3c(O)c2O)[C@H](O)[C@@H](O)[C@@H]1O [baicalin]
- effect on cell viability (cytotoxicity) (PK-15 cells): no significant effect on cell viability
- inhibition of expression of PRV gE protein [1]: significantly inhibited the expression of PRV gE protein
- inhibition of PRV proliferation (virus titer, TCID50) (PRV-HeNLH/2017 strain): significantly inhibited the proliferation of PRV on PK-15 cells
- inhibition of proliferation of PRV-GFP strain (green fluorescence) (PRV-GFP strain): inhibited the proliferation of PRV-GFP strains at the using concentrations, and the inhibitory effect was more significant at 62.5 and 125 μM

Source: patent US20240156847A1 (priority 2022, published 2024)
